System: GRMD plasma proteins
Format: in vivo, dog
Settings: EDG-5506 treatment to GRMD baseline; Increased in GRMD

O=c1ccc(-c2cnc(OCC(F)(F)F)nc2)nn1Cc1cncc(F)c1 [EDG-5506]
Change from GRMD Baseline (fraction): Fibronectin Fragment 4 (FN1): -0.0853 fraction
Change from GRMD Baseline (fraction): Follistatin (FST): -0.1433 fraction
Change from GRMD Baseline (fraction): Fractalkine (CX3CL1): -0.1153 fraction
Change from GRMD Baseline (fraction): Fructose-bisphosphate aldolase A (ALDOA): 0.1605 fraction
Change from GRMD Baseline (fraction): G2/mitotic-specific cyclin-B1 (CCNB1): -0.0054 fraction
Change from GRMD Baseline (fraction): Galectin-4 (LGALS4): -0.0907 fraction
Change from GRMD Baseline (fraction): Galectin-7 (LGALS7): -0.1308 fraction
Change from GRMD Baseline (fraction): Glucose-6-phosphate isomerase (GPI): -0.4647 fraction
Change from GRMD Baseline (fraction): Glyceraldehyde-3-phosphate dehydrogenase (GAPDH): -0.5078 fraction
Change from GRMD Baseline (fraction): Glycogen synthase kinase-3 alpha/beta (GSK3A GSK3B): -0.3338 fraction
Change from GRMD Baseline (fraction): Granulocyte-macrophage colony-stimulating factor (CSF2): -0.2326 fraction
Change from GRMD Baseline (fraction): Growth factor receptor-bound protein 2 (GRB2): -0.3399 fraction
Change from GRMD Baseline (fraction): Growth/differentiation factor 5 (GDF5): -0.0403 fraction
Change from GRMD Baseline (fraction): Heat shock 70 kDa protein 1A (HSPA1A): -0.2859 fraction
Change from GRMD Baseline (fraction): Heat shock cognate 71 kDa protein (HSPA8): -0.3616 fraction
Change from GRMD Baseline (fraction): Heat shock protein HSP 90-alpha/beta (HSP90AA1 HSP90AB1): -0.1032 fraction
Change from GRMD Baseline (fraction): Heat shock protein HSP 90-beta (HSP90AB1): -0.0167 fraction
Change from GRMD Baseline (fraction): Heat shock protein beta-1 (HSPB1): -0.0454 fraction
Change from GRMD Baseline (fraction): Hepatoma-derived growth factor-related protein 2 (HDGFRP2): -0.0887 fraction
Change from GRMD Baseline (fraction): Heterogeneous nuclear ribonucleoprotein A/B (HNRNPAB): -0.2641 fraction
Change from GRMD Baseline (fraction): Heterogeneous nuclear ribonucleoprotein Q (SYNCRIP): -0.2959 fraction
Change from GRMD Baseline (fraction): Heterogeneous nuclear ribonucleoproteins A2/B1 (HNRNPA2B1): -0.2792 fraction
Change from GRMD Baseline (fraction): Hexokinase-2 (HK2): -0.2831 fraction
Change from GRMD Baseline (fraction): Histidine triad nucleotide-binding protein 1 (HINT1): -0.1184 fraction
Change from GRMD Baseline (fraction): Histone H1.2 (HIST1H1C): -0.2004 fraction
Change from GRMD Baseline (fraction): Histone deacetylase 8 (HDAC8): -0.1223 fraction
Change from GRMD Baseline (fraction): Homeodomain-interacting protein kinase 3 (HIPK3): 0.4673 fraction
Change from GRMD Baseline (fraction): Immunoglobulin superfamily containing leucine-rich repeat protein 2 (ISLR2): 0.163 fraction
Change from GRMD Baseline (fraction): Inducible T-cell costimulator (ICOS): -0.069 fraction
Change from GRMD Baseline (fraction): Inosine-5'-monophosphate dehydrogenase 2 (IMPDH2): -0.2973 fraction
Change from GRMD Baseline (fraction): Insulin-degrading enzyme (IDE): -0.2351 fraction
Change from GRMD Baseline (fraction): Insulin-like growth factor-binding protein 3 (IGFBP3): -0.1253 fraction
Change from GRMD Baseline (fraction): Intercellular adhesion molecule 5 (ICAM5): 0.2028 fraction
Change from GRMD Baseline (fraction): Interferon alpha-10 (IFNA10): 0.155 fraction
Change from GRMD Baseline (fraction): Interleukin-1 alpha (IL1A): -0.061 fraction
Change from GRMD Baseline (fraction): Interleukin-1 receptor-like 2 (IL1RL2): -0.0194 fraction
Change from GRMD Baseline (fraction): Interleukin-15 receptor subunit alpha (IL15RA): -0.1087 fraction
Change from GRMD Baseline (fraction): Interleukin-17F (IL17F): -0.0145 fraction
Change from GRMD Baseline (fraction): Interleukin-37 (IL37): -0.0864 fraction
Change from GRMD Baseline (fraction): Junctional adhesion molecule B (JAM2): -0.0925 fraction
Change from GRMD Baseline (fraction): Junctional adhesion molecule C (JAM3): -0.1846 fraction
Change from GRMD Baseline (fraction): Kallikrein-6 (KLK6): -0.0597 fraction
Change from GRMD Baseline (fraction): Kallikrein-12 (KLK12): 0.0192 fraction
Change from GRMD Baseline (fraction): Kallikrein-14 (KLK14): -0.165 fraction
Change from GRMD Baseline (fraction): Kin of IRRE-like protein 3 (KIRREL3): -0.0664 fraction
Change from GRMD Baseline (fraction): Kremen protein 2 (KREMEN2): -0.1517 fraction
Change from GRMD Baseline (fraction): Kynureninase (KYNU): -0.1154 fraction
Change from GRMD Baseline (fraction): L-Selectin (SELL): -0.2072 fraction
Change from GRMD Baseline (fraction): L-lactate dehydrogenase B chain (LDHB): -0.3998 fraction
Change from GRMD Baseline (fraction): Leucine-rich repeat serine/threonine-protein kinase 2 (LRRK2): -0.1394 fraction
Change from GRMD Baseline (fraction): Leucine-rich repeat transmembrane protein FLRT1 (FLRT1): -0.1359 fraction
Change from GRMD Baseline (fraction): Low affinity immunoglobulin epsilon Fc receptor (FCER2): -0.0521 fraction
Change from GRMD Baseline (fraction): MAP kinase-activated protein kinase 2 (MAPKAPK2): -0.3216 fraction
Change from GRMD Baseline (fraction): MAP kinase-activated protein kinase 3 (MAPKAPK3): -0.2837 fraction
Change from GRMD Baseline (fraction): Macrophage scavenger receptor types I and II (MSR1): -0.0382 fraction
Change from GRMD Baseline (fraction): Malate dehydrogenase, cytoplasmic (MDH1): -0.1486 fraction
Change from GRMD Baseline (fraction): Methionine aminopeptidase 2 (METAP2): -0.1671 fraction
Change from GRMD Baseline (fraction): Microtubule-associated protein tau (MAPT): -0.2425 fraction
Change from GRMD Baseline (fraction): Mitogen-activated protein kinase 3 (MAPK3): -0.2851 fraction
Change from GRMD Baseline (fraction): Mitogen-activated protein kinase 8 (MAPK8): -0.2995 fraction
Change from GRMD Baseline (fraction): Mitogen-activated protein kinase 12 (MAPK12): -0.3528 fraction
Change from GRMD Baseline (fraction): Mitogen-activated protein kinase 14 (MAPK14): -0.2706 fraction
Change from GRMD Baseline (fraction): Mothers against decapentaplegic homolog 3 (SMAD3): -0.0452 fraction
Change from GRMD Baseline (fraction): Myeloblastin (PRTN3): 0.0617 fraction
Change from GRMD Baseline (fraction): Myoglobin (MB): -0.422 fraction
Change from GRMD Baseline (fraction): Myosin-binding protein C, slow-type (MYBPC1): 0.1932 fraction
Change from GRMD Baseline (fraction): NKG2D ligand 2 (ULBP2): -0.0329 fraction
Change from GRMD Baseline (fraction): NSFL1 cofactor p47 (NSFL1C): -0.3479 fraction
Change from GRMD Baseline (fraction): Natural cytotoxicity triggering receptor 3 (NCR3): -0.0271 fraction
Change from GRMD Baseline (fraction): Neuronal cell adhesion molecule (NRCAM): 0.199 fraction
Change from GRMD Baseline (fraction): Neutral ceramidase (ASAH2): -0.1226 fraction
Change from GRMD Baseline (fraction): Nucleoside diphosphate kinase A (NME1): -0.3054 fraction
Change from GRMD Baseline (fraction): OCIA domain-containing protein 1 (OCIAD1): -0.019 fraction
Change from GRMD Baseline (fraction): Oncostatin-M (OSM): -0.0794 fraction
Change from GRMD Baseline (fraction): Opioid-binding protein/cell adhesion molecule (OPCML): -0.0946 fraction
Change from GRMD Baseline (fraction): PIK3CA/PIK3R1 (PIK3CA PIK3R1): -0.2992 fraction
Change from GRMD Baseline (fraction): Parathyroid hormone-related protein (PTHLH): -0.1165 fraction
Change from GRMD Baseline (fraction): Peptidyl-prolyl cis-trans isomerase E (PPIE): -0.2567 fraction
Change from GRMD Baseline (fraction): Peroxiredoxin-1 (PRDX1): -0.376 fraction
Change from GRMD Baseline (fraction): Peroxiredoxin-6 (PRDX6): -0.4044 fraction
Change from GRMD Baseline (fraction): Phosphatidylethanolamine-binding protein 1 (PEBP1): -0.1964 fraction
Change from GRMD Baseline (fraction): Phosphoglucomutase-1 (PGM1): -0.1676 fraction
Change from GRMD Baseline (fraction): Phosphoglycerate mutase 1 (PGAM1): 0.2377 fraction
Change from GRMD Baseline (fraction): Plasma serine protease inhibitor (SERPINA5): -0.1552 fraction
Change from GRMD Baseline (fraction): Platelet glycoprotein 4 (CD36): -0.0717 fraction
Change from GRMD Baseline (fraction): Platelet-activating factor acetylhydrolase (PLA2G7): -0.1993 fraction
Change from GRMD Baseline (fraction): Platelet-derived growth factor receptor alpha (PDGFRA): -0.052 fraction
Change from GRMD Baseline (fraction): Proliferating cell nuclear antigen (PCNA): -0.2439 fraction
Change from GRMD Baseline (fraction): Protein NOV homolog (NOV): -0.0815 fraction
Change from GRMD Baseline (fraction): Protein S100-A12 (S100A12): -0.0694 fraction
Change from GRMD Baseline (fraction): RAC-alpha/beta/gamma serine/threonine-protein kinase (AKT1 AKT2 AKT3): -0.3391 fraction
Change from GRMD Baseline (fraction): RAC-beta serine/threonine-protein kinase (AKT2): -0.2794 fraction
Change from GRMD Baseline (fraction): Rab GDP dissociation inhibitor beta (GDI2): -0.3851 fraction
Change from GRMD Baseline (fraction): Receptor tyrosine-protein kinase erbB-3 (ERBB3): 0.0234 fraction
Change from GRMD Baseline (fraction): Receptor-type tyrosine-protein kinase FLT3 (FLT3): -0.1824 fraction
Change from GRMD Baseline (fraction): Renin (REN): -0.0274 fraction
Change from GRMD Baseline (fraction): Retinoblastoma-associated protein (RB1): -0.0961 fraction
Change from GRMD Baseline (fraction): S-formylglutathione hydrolase (ESD): -0.2877 fraction
Change from GRMD Baseline (fraction): Serine/threonine-protein kinase 17B (STK17B): -0.0905 fraction
Change from GRMD Baseline (fraction): Serine/threonine-protein kinase Chk2 (CHEK2): 0.2279 fraction
Change from GRMD Baseline (fraction): Serine/threonine-protein kinase WNK3 (WNK3): -0.1692 fraction
Change from GRMD Baseline (fraction): Serine/threonine-protein kinase receptor R3 (ACVRL1): -0.0902 fraction
Change from GRMD Baseline (fraction): Small nuclear ribonucleoprotein F (SNRPF): -0.0313 fraction
Change from GRMD Baseline (fraction): Somatostatin-28 (SST): 0.1915 fraction
Change from GRMD Baseline (fraction): T-lymphocyte activation antigen CD80 (CD80): -0.0767 fraction
Change from GRMD Baseline (fraction): Thymic stromal lymphopoietin (TSLP): -0.0628 fraction
Change from GRMD Baseline (fraction): Thyroid peroxidase (TPO): -0.1126 fraction
Change from GRMD Baseline (fraction): Tissue factor pathway inhibitor (TFPI): 0.0479 fraction
Change from GRMD Baseline (fraction): Transcription factor AP-1 (JUN): -0.1004 fraction
Change from GRMD Baseline (fraction): Transketolase (TKT): -0.3602 fraction
Change from GRMD Baseline (fraction): Translationally-controlled tumor protein (TPT1): -0.3694 fraction
Change from GRMD Baseline (fraction): Triosephosphate isomerase (TPI1): -0.5129 fraction
Change from GRMD Baseline (fraction): Tropomyosin beta chain (TPM2): -0.0815 fraction
Change from GRMD Baseline (fraction): Troponin I, cardiac muscle (TNNI3): 0.0173 fraction
Change from GRMD Baseline (fraction): Troponin I, fast skeletal muscle (TNNI2): 0.1681 fraction
Change from GRMD Baseline (fraction): Troponin T, cardiac muscle (TNNT2): 0.0317 fraction
Change from GRMD Baseline (fraction): Tumor necrosis factor ligand superfamily member 11 (TNFSF11): -0.1211 fraction
Change from GRMD Baseline (fraction): Tumor necrosis factor receptor superfamily member 1B (TNFRSF1B): -0.1149 fraction
Change from GRMD Baseline (fraction): Tumor necrosis factor receptor superfamily member 3 (LTBR): -0.1112 fraction
